Each molecule was assayed against REV-ERBα LBD (Homo sapiens, UniProt P20393, DEL324-422) (assay: biochemical). Details: FRET assay; 6xHistag-REV-ERBα LBD with FITC-labeled SMRT corepressor peptide; read-out: REVERBα (Agonism of REV-ERBα, EC50).
Procedure: TR-FRET corepressor interaction assay. The time-resolved fluorescence resonance energy transfer (TR-FRET) assay was performed in black low-volume 384-well plates (Greiner). Each well contained 4 nM 6×Histag-REV-ERBα LBD (human; residues 281-614 A324-422) or 6×Histag-REV-ERBα LBD (human; residues 381-579) protein expressed in and purified from Escherichia coli using nickel affinity and size exclusion chromatography; 1 nM LanthaScreen Elite Tb-anti-HIS Antibody (Thermo Fisher Scientific); and 400 nM FITC-labeled peptide derived from the SMRT corepressor ([…]) containing a N-terminal FITC label with a six-carbon linker (Ahx) and an amidated C-terminus for stability (synthesized by LifeTein) in TR-FRET buffer (20 mM potassium phosphate, pH 7.4, 50 mM potassium chloride, 1 mM dithiothreitol, and 0.005% Tween-20). Ligand stocks were prepared via serial dilution in DMSO, added to wells in triplicate, and plates were incubated at 4° C. for 2 h and read using a BioTek Synergy Neo multimode plate reader. The Tb donor was excited at 340 nm; its fluorescence emission was monitored at 495 nm, and the acceptor FITC emission was measured at 520 nm; and the TR-FRET ratio was calculated as the signal at 520 nm divided by the signal at 495 nm. Data were plotted using GraphPad Prism as TR-FRET ratio vs. ligand concentration and fit to sigmoidal dose response curve equation.
Exemplary compounds of the present disclosure were assayed as described above to assess agonism of REV-ERBα. Results of the FRET assay are shown in Table 2 below (A: EC50<100 nM; B: EC50 100 nM-1000 nM; C: EC50>1000 nM; NT: not tested).

Sequence of REV-ERBα LBD (P20393 with tags, fused parts or gaps DEL324-422): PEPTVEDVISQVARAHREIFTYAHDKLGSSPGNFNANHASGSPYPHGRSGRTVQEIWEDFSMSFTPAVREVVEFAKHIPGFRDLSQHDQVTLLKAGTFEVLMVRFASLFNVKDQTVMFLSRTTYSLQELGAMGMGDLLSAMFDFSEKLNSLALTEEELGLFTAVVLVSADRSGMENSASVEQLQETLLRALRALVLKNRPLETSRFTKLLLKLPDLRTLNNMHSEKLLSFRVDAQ
Sequence of REV-ERBα LBD (Q9Y618 2335-2356 partner limits assumed): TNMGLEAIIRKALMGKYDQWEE

EC50, 0.1 to 1 µM:
CC(NS(=O)(=O)C1CC1)c1cn(CC(C)(C)C)c2cc(-c3ncccc3C(F)(F)F)c(F)cc12 (single isomer, unassigned) [Compound 17, (R or S)—N-(1-(5-fluoro-1-neopentyl-6-(3-(trifluoromethyl)pyridine-2-yl)-1H-indol-3-yl)ethyl)cyclopropane sulfonamide]
Cc1ccccc1-c1ccc2c([C@H](NS(=O)(=O)C3CC(F)(F)C3)C(F)F)cn(CC(C)(C)C)c2c1 [Compound 30, (S)—N-(2,2-difluoro-1-(1-neopentyl-6-(o-tolyl)-1H-indol-3-yl)ethyl)-3,3-difluorocyclobutane-1-sulfonamide]
CC(NS(=O)(=O)C1CC1)c1cn(CC(C)(C)C)c2cc(-c3ccc(C(F)(F)F)nc3)c(F)cc12 (centres unmarked) [Compound 70, N-(1-(5-fluoro-1-neopentyl-6-(6-(trifluoromethyl)pyridin-3-yl)-1H-indol-3-yl)ethyl)cyclopropanesulfonamide]
CN1CC(n2cc([C@H](NS(=O)(=O)C3CC3)C(F)F)c3cc(F)c(-c4ccc(F)cc4C(F)(F)F)cc32)C1 [Compound 168, (S)—N-(2,2-difluoro-1-(5-fluoro-6-(4-fluoro-2-(trifluoromethyl)phenyl)-1-(1-methylazetidin-3-yl)-1H-indol-3-yl)ethyl)cyclopropanesulfonamide]

EC50, < 0.1 µM:
CC(C)(C)Cn1cc([C@H](NS(=O)(=O)C2CC2)C(F)F)c2cc(F)c(-c3cc(F)cnc3C(F)F)cc21 [Compound 123, (S)—N-(1-(6-(2-(difluoromethyl)-5-fluoropyridin-3-yl)-5-fluoro-1-neopentyl-1H-indol-3-yl)-2,2-difluoroethyl)cyclopropanesulfonamide]
Cc1ccccc1-c1ccc2c([C@H](NS(=O)(=O)C3CC3)C(F)F)cn(CC(C)(C)C)c2c1 [Compound 15, (S)—N-(2,2-difluoro-1-(1-neopentyl-6-(o-tolyl)-1H-indol-3-yl)ethyl)cyclopropanesulfonamide]
CC(C)(C)Cn1cc([C@H](NS(=O)(=O)C2CC2)C(F)F)c2cc(F)c(-c3ncc(F)cc3Cl)cc21 [Compound 93, (S)—N-(1-(6-(3-chloro-5-fluoropyridin-2-yl)-5-fluoro-1-neopentyl-1H-indol-3-yl)-2,2-difluoroethyl)cyclopropanesulfonamide]
CC(C)(C)Cn1cc([C@H](NS(=O)(=O)C2CC2)C(F)F)c2cc(F)c(-c3ccc(=O)[nH]c3C(F)(F)F)cc21 [Compound 169, (S)—N-(2,2-difluoro-1-(5-fluoro-1-neopentyl-6-(6-oxo-2-(trifluoromethyl)-1,6-dihydropyridin-3-yl)-1H-indol-3-yl)ethyl)cyclopropanesulfonamide]
O=S(=O)(N[C@@H](c1cn(C2CCC2)c2cc(-c3ccc(F)cc3C(F)(F)F)c(F)cc12)C(F)F)C1CC1 [Compound 154, (S)—N-(1-(1-cyclobutyl-5-fluoro-6-(4-fluoro-2-(trifluoromethyl)phenyl)-1H-indol-3-yl)-2,2-difluoroethyl)cyclopropanesulfonamide]
Nc1ccc(-c2nc3c(cc2F)c([C@H](NS(=O)(=O)C2CC2)C(F)F)cn3C2CCC2)c(C(F)(F)F)n1 [Compound 180, (S)—N-(1-(6-(6-amino-2-(trifluoromethyl)pyridin-3-yl)-1-cyclobutyl-5-fluoro-1H-pyrrolo[2,3-b]pyridin-3-yl)-2,2-difluoroethyl)cyclopropanesulfonamide]
CC(C)(C)Cn1cc([C@H](NS(=O)(=O)C2CC2)C(F)F)c2cc(F)c(-c3ncc(F)cc3C(F)F)cc21 [Compound 134, (S)—N-(1-(6-(3-(difluoromethyl)-5-fluoropyridin-2-yl)-5-fluoro-1-neopentyl-1H-indol-3-yl)-2,2-difluoroethyl)cyclopropanesulfonamide]
CC(C)(C)Cn1cc([C@H](NS(=O)(=O)C2CCC2)C(F)F)c2cc(F)c(-c3c(C(F)(F)F)ccnc3C#N)cc21 [Compound 135, N-((1S)-1-(6-(2-cyano-4-(trifluoromethyl)pyridin-3-yl)-5-fluoro-1-neopentyl-1H-indol-3-yl)-2,2-difluoroethyl)cyclobutanesulfonamide]
CC(C)(C)Cn1cc([C@H](NS(=O)(=O)C2CC2)C(F)F)c2ccc(-c3cccnc3C(F)F)cc21 [Compound 87, (S)—N-(1-(6-(2-(difluoromethyl)pyridin-3-yl)-1-neopentyl-1H-indol-3-yl)-2,2-difluoroethyl)cyclopropanesulfonamide]
CC(C)(C)Cn1cc([C@H](NS(=O)(=O)C2CC2)C(F)F)c2ccc(-c3cncnc3C(F)(F)F)cc21 [Compound 80, (S)—N-(2,2-difluoro-1-(1-neopentyl-6-(4-(trifluoromethyl)pyrimidin-5-yl)-1H-indol-3-yl)ethyl)cyclopropanesulfonamide]
CC(C)(C)Cn1cc([C@H](NS(=O)(=O)C2CC2)C(F)F)c2ccc(-c3ncc(Cl)cc3F)cc21 [Compound 77, (S)—N-(1-(6-(5-chloro-3-fluoropyridin-2-yl)-1-neopentyl-1H-indol-3-yl)-2,2-difluoroethyl)cyclopropanesulfonamide]
CC(C)(C)Cn1cc([C@H](NS(=O)(=O)C2CCC2)C(F)F)c2cc(F)c(-c3c(C#N)cccc3C(F)(F)F)cc21 [Compound 136, N-((1S)-1-(6-(2-cyano-6-(trifluoromethyl)phenyl)-5-fluoro-1-neopentyl-1H-indol-3-yl)-2,2-difluoroethyl)cyclobutanesulfonamide]
CC(C)(C)Cn1cc([C@H](NS(=O)(=O)C2CC2)C(F)F)c2ccc(C3CCOCC3)cc21 [Compound 174, (S)—N-(2,2-difluoro-1-(1-neopentyl-6-(tetrahydro-2H-pyran-4-yl)-1H-indol-3-yl)ethyl)cyclopropanesulfonamide]
N#Cc1nccc(C(F)(F)F)c1-c1cc2c(cc1F)c([C@H](NS(=O)(=O)C1CC1)C(F)F)cn2C1CCC1 [Compound 159, N-((1S)-1-(6-(2-cyano-4-(trifluoromethyl)pyridin-3-yl)-1-cyclobutyl-5-fluoro-1H-indol-3-yl)-2,2-difluoroethyl)cyclopropanesulfonamide]
CC(C)(C)Cn1cc([C@H](NS(=O)(=O)C2CC2)C(F)F)c2ccc(-c3ccc(F)cc3C(F)(F)F)nc21 [Compound 4, (S)—N-(2,2-difluoro-1-(6-(4-fluoro-2-(trifluoromethyl)phenyl)-1-neopentyl-1H-pyrrolo[2,3-b]pyridin-3-yl)ethyl)cyclopropanesulfonamide]
Cc1cnc(-c2cc3c(cc2F)c([C@H](NS(=O)(=O)C2CC2)C(F)F)cn3CC(C)(C)C)c(C(F)(F)F)n1 [Compound 144, (S)—N-(2,2-difluoro-1-(5-fluoro-6-(5-methyl-3-(trifluoromethyl)pyrazin-2-yl)-1-neopentyl-1H-indol-3-yl)ethyl)cyclopropanesulfonamide]
CC(C)(C)Cn1cc([C@H](NS(=O)(=O)C2CC2)C(F)F)c2ccc(-c3ccc(N)nc3C(F)(F)F)cc21 [Compound 167, (S)—N-(1-(6-(6-amino-2-(trifluoromethyl)pyridin-3-yl)-1-neopentyl-1H-indol-3-yl)-2,2-difluoroethyl)cyclopropanesulfonamide]
CC(NS(=O)(=O)C1CC1)c1cn(CC(C)(C)C)c2cc(-c3ncccc3Cl)c(F)cc12 (centres unmarked) [Compound 58, N-[1-[6-(3-chloro-2-pyridyl)-1-(2,2-dimethylpropyl)-5-fluoro-indol-3-yl]ethyl]cyclopropanesulfonamide]
Cc1ccc(-c2cc3c(cc2F)c([C@H](NS(=O)(=O)C2CC2)C(F)F)cn3CC(C)(C)C)c(C(F)(F)F)n1 [Compound 139, (S)—N-(2,2-difluoro-1-(5-fluoro-6-(6-methyl-2-(trifluoromethyl)pyridin-3-yl)-1-neopentyl-1H-indol-3-yl)ethyl)cyclopropanesulfonamide]
Cc1ncc(F)cc1-c1cc2c(cc1F)c(C(C)NS(=O)(=O)C1CC1)cn2CC(C)(C)C (centres unmarked) [Compound 66, N-(1-(5-fluoro-6-(5-fluoro-2-methylpyridin-3-yl)-1-neopentyl-1H-indol-3-yl)ethyl)cyclopropanesulfonamide]
CC(C)(C)Cn1cc([C@H](NS(=O)(=O)C2CC2)C(F)F)c2ccc(-c3cc(F)cnc3C(F)F)cc21 [Compound 119, (S)—N-(1-(6-(2-(difluoromethyl)-5-fluoropyridin-3-yl)-1-neopentyl-1H-indol-3-yl)-2,2-difluoroethyl)cyclopropanesulfonamide]
CC(C)(C)Cn1cc([C@H](NS(=O)(=O)C2CC2)C(F)F)c2ccc(-c3c(C#N)cccc3C(F)F)cc21 [Compound 103, (S)—N-(1-(6-(2-cyano-6-(difluoromethyl)phenyl)-1-neopentyl-1H-indol-3-yl)-2,2-difluoroethyl)cyclopropanesulfonamide]

From patent US20260285846A1, “REV-ERB AGONISTS FOR TH17-MEDIATED INFLAMMATORY DISORDERS” (UNIVERSITY OF FLORID RESEARCH FOUNDATION, iNCORPORATED, priority 2021, published 2026)
